The values below come from PMC6934184, “Selective DNA-PKcs inhibition extends the therapeutic index of localized radiotherapy and chemotherapy” (The Journal of Clinical Investigation, 2019).

Each structure is given as a SMILES string.

Assay [1] concerns HAP-1 cells that express 1 copy of PRKDC. As to the kind of experiment: clonogenic survival with IR. Particulars: 5 μM concomitant. It counts as cell-based, human. The method, then:
(§1) Exponentially growing HAP-1 DNA-PK proficient or deficient cells were seeded into 6-well plates and allowed to re-attach. Cells were then incubated with vehicle (DMSO) or NU5455 (5 µM) 1 hour prior to irradiation and for a further 24 hours post-irradiation. Cells were then washed in PBS and incubated in drug-free medium to allow for colony formation.
(§2) To quantify the number of proliferating versus confluent cells, cells were pulsed with 5-ethynyl-2’-deoxyuridine (EdU), and labeled using the Click-iT Plus EdU Alexa Fluor 647 Flow Cytometry Assay Kit together with FxCycle Violet Stain to label DNA (both Thermo Fisher) following the manufacturer’s instructions. Samples of cells taken from tho se used in the clonogenic assay were used to confirm the percentage of cells in each cell cycle phase.
(§3) Samples were acquired on a Symphony A5 flow cytometer (Becton Dickinson, UK).
(§4) Cell cycle phase status was also confirmed by microscopy, using cells grown on coverslips i n 6-well plates. […] Coverslips were mounted using Prolong Glass with NucBlue (ThermoFisher) and images were acquired on the Leica TCS SP8 confocal fluorescence […]
(§5) Treated cells were fixed with 10% (w/v) trichloroacetic acid (Fisher) at 4°C overnight. Cells were stained with sulphorhodamine B (SRB, 0.4% (w/v) in water), and cell density quantified

The test system of assay [2] is HAP-1 DNA-PK–null cells. Nature of the assay: clonogenic survival with IR. It counts as cell-based, human. Particulars: 5 μM concomitant. The method, then:
as §1, §2, §3, §4, §5

`CN(C(=O)CN1CCOCC1)c1ccc2sc3c(-c4cccc5c(=O)cc(N6CC7CCC(C6)O7)oc45)cccc3c2c1` [NU5455]: the “clonogenic cell-killing effect of 1–4 Gy IR” value in assay [1] is “markedly increased”. Further, the “response to IR (clonogenic)” value in assay [2] is “did not alter the response”.
